Common to all, as to assay: Kinase profiling
Holding throughout (type): biochemical

One experiment has as its target T1, ACVR1B (Homo sapiens, UniProt P36896).
T1 construct: purchased ProQinase (Freiburg, Germany)
T1 sequence (P36896 24-505): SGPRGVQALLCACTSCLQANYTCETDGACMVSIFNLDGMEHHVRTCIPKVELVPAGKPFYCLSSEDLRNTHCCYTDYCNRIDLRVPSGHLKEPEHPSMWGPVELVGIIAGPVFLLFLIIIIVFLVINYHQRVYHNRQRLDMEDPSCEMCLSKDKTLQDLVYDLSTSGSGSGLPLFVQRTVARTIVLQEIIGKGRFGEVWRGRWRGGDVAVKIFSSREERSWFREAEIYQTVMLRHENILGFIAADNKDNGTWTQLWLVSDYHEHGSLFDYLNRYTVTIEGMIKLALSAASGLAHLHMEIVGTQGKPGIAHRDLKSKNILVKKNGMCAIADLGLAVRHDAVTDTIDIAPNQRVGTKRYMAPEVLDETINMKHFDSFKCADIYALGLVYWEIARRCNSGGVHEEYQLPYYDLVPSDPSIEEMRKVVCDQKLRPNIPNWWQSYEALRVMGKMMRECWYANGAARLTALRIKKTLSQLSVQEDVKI
As for the experimental part: (§1) The analysis was performed by ProQinase (Freiburg, Germany).

Another experiment has as its target T2, CDK19/CycC (Homo sapiens, UniProt Q9BWU1).
T2 construct: purchased ProQinase (Freiburg, Germany)
Here is the method: as §1

Another experiment has as its target T3, CDK3/CycC (Homo sapiens, UniProt Q00526).
T3 construct: purchased ProQinase (Freiburg, Germany)
Here is the method: as §1

The target in another experiment is T4, CHK2 (Homo sapiens, UniProt O96017).
T4 construct: purchased ProQinase (Freiburg, Germany)
Here is the method: as §1

The target in a further experiment is T5, CK1delta (Homo sapiens, UniProt P48730).
T5 construct: purchased ProQinase (Freiburg, Germany)
Here is the method:
as §1

The next experiment concerns the target T6, EPHB3 (Homo sapiens, UniProt P54753).
T6 construct: purchased ProQinase (Freiburg, Germany)
T6 sequence (P54753 34-998): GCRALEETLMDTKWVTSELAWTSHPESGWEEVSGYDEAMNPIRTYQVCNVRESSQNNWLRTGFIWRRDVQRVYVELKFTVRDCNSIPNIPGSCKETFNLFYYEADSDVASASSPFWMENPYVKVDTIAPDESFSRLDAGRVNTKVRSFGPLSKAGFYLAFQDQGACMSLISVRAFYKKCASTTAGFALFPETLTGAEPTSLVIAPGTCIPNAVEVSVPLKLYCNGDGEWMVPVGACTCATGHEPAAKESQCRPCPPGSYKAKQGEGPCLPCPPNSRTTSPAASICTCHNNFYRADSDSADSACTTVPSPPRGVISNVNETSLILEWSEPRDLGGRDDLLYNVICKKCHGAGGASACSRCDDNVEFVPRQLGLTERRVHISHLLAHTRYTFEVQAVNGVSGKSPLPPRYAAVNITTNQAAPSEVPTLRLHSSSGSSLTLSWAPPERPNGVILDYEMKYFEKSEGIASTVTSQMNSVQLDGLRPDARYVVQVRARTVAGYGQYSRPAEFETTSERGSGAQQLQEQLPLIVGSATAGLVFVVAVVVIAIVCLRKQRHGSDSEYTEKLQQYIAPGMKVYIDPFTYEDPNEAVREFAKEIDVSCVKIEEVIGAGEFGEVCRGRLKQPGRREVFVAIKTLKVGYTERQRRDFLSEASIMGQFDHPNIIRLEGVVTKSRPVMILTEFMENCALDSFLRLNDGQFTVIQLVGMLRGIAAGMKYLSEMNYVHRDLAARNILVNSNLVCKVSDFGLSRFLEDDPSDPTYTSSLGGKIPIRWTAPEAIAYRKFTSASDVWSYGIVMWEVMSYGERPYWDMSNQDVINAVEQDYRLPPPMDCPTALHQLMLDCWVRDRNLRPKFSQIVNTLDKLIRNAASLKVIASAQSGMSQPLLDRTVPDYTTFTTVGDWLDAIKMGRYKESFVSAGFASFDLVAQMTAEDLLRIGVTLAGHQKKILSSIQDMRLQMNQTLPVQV
Here is the method: as §1

The target of a further experiment is T7, EPHB4 (Homo sapiens, UniProt P54760).
T7 construct: purchased ProQinase (Freiburg, Germany)
T7 sequence (P54760 16-987): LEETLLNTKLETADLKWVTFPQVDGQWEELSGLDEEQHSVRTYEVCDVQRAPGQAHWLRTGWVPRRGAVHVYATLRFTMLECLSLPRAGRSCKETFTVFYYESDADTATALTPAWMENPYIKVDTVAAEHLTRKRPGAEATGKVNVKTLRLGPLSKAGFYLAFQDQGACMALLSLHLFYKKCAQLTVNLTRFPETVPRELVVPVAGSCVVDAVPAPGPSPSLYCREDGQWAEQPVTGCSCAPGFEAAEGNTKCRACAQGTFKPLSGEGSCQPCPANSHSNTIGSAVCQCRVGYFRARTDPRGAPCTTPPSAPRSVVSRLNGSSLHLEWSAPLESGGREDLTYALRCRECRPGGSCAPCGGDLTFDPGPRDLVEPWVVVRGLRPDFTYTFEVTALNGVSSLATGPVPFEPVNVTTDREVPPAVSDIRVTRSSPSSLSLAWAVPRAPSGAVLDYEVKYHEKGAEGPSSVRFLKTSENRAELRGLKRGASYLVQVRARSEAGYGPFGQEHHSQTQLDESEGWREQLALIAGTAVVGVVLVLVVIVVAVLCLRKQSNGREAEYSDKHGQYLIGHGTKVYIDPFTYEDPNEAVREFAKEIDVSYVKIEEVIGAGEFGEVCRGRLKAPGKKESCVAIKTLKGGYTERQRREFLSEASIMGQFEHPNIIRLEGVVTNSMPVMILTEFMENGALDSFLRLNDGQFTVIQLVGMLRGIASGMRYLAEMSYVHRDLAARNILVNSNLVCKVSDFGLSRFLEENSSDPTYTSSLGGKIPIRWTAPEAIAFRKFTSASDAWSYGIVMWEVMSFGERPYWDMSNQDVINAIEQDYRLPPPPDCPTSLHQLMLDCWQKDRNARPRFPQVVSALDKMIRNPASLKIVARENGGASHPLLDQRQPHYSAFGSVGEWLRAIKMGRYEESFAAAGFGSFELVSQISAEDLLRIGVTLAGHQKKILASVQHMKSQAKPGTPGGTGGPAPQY
Here is the method:
as §1

Another experiment addresses T8, FGFR2 (Homo sapiens, UniProt P21802).
T8 construct: purchased ProQinase (Freiburg, Germany)
Here is the method: as §1

In a further experiment the target is T9, MAPKAPK2 (Homo sapiens, UniProt P49137).
T9 construct: purchased ProQinase (Freiburg, Germany)
Here is the method: as §1

Molecules are shown by their SMILES.

In general, inhibition refers to the percentage by which the read-out fell short of the control.

T3 sequence (Q00526 whole entry): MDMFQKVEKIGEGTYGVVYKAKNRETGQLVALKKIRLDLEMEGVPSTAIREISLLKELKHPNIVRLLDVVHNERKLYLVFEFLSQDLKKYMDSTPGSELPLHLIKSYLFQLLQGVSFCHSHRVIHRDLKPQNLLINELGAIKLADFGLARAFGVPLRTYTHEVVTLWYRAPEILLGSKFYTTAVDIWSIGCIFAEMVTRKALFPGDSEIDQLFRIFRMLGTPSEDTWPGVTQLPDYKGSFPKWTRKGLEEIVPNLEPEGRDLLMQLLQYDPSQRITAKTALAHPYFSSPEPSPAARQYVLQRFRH
T3 sequence (P24863 whole entry partner): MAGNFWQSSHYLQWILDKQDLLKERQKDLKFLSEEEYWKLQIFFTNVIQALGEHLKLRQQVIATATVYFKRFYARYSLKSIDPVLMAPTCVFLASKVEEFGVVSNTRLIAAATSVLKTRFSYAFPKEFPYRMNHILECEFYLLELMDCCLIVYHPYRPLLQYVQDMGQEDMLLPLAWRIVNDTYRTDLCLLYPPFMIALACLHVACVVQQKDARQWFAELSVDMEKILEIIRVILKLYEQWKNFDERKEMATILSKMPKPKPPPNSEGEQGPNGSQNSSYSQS
T8 sequence (P21802 22-821): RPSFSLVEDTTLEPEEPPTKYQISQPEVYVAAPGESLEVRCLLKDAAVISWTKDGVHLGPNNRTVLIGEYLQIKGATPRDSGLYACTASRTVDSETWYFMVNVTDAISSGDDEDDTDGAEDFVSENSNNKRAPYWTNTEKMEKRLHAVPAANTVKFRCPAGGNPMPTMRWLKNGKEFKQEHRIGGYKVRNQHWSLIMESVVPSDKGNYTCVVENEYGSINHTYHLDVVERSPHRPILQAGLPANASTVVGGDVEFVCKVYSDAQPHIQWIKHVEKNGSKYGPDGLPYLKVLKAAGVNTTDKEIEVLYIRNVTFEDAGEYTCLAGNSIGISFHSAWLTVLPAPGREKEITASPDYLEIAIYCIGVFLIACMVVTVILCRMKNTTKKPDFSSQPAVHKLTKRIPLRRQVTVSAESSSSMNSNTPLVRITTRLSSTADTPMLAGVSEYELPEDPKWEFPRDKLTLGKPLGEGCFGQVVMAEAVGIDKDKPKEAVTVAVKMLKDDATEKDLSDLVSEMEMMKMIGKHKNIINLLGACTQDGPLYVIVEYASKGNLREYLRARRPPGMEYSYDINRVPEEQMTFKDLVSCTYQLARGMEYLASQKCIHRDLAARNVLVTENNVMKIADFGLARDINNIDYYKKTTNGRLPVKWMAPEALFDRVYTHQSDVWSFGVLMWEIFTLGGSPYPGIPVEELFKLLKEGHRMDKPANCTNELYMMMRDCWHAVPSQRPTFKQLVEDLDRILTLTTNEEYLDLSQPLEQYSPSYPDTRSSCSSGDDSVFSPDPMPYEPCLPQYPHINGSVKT
T4 sequence (O96017 whole entry): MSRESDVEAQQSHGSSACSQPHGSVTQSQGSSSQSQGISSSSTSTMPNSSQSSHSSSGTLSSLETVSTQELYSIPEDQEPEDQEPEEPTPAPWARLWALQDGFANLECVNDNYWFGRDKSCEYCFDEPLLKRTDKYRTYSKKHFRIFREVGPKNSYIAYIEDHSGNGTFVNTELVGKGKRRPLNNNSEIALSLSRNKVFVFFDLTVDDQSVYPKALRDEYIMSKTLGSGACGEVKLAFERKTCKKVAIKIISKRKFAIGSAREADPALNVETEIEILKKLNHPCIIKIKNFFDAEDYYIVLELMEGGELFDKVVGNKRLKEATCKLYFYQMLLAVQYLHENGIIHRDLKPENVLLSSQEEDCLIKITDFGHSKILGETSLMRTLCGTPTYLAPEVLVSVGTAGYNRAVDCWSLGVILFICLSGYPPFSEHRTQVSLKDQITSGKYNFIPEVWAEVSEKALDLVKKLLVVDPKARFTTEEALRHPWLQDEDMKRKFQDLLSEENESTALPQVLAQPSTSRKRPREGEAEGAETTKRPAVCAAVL
T2 sequence (Q9BWU1 whole entry): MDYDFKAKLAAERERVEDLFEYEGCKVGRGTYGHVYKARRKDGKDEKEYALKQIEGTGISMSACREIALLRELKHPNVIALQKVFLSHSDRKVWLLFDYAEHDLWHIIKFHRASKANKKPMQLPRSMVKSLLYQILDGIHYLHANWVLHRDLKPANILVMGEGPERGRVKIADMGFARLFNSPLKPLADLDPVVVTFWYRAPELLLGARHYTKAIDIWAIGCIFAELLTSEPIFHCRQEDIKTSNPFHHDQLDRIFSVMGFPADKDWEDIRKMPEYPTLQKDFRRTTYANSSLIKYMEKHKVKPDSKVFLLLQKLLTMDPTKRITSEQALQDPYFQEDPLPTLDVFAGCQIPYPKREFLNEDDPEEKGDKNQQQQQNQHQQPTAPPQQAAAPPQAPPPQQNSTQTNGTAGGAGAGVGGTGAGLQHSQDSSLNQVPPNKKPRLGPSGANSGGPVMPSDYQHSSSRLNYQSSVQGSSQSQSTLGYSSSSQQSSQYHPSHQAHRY
T2 sequence (P24863 whole entry partner): as the sequence (P24863 whole entry partner) above
T9 sequence (P49137 whole entry): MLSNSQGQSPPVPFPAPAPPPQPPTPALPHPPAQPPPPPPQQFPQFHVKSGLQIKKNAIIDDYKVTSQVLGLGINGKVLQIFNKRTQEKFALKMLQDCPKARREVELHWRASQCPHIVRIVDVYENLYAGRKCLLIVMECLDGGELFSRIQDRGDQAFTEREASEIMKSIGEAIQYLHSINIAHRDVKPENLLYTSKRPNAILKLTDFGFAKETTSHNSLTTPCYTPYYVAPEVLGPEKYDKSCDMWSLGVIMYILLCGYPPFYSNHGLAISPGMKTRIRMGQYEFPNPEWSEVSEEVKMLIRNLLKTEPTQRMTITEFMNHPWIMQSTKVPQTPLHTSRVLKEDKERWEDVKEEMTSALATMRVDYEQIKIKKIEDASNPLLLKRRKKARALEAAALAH
T5 sequence (P48730 whole entry): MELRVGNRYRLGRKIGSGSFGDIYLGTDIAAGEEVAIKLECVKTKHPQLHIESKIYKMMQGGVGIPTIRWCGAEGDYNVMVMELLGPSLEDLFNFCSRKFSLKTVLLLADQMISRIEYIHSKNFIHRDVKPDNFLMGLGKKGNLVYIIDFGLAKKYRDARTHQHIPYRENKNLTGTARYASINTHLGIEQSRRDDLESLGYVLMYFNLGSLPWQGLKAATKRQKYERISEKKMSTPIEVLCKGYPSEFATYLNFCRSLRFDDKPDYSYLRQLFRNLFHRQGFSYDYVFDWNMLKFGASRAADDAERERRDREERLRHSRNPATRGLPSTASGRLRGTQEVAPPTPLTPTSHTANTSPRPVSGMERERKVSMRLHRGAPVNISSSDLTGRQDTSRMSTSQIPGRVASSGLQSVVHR

With `O=C(Cc1ccccc1)Nc1ccc(F)c(Nc2ccc3c(c2)CCCCC3=O)c1` [Compound 100], the Residual activity at ACVR1B (1.0E-05 M) was 90 % of control; at ACVR1B (1.0E-06 M), 92 % of control; at CDK19/CycC (1.0E-05 M), 77 % of control; on CDK19/CycC (1.0E-06 M), 81 % of control; at CDK3/CycC (1.0E-05 M) it was 89 % of control; at CDK3/CycC (1.0E-06 M) it was 97 % of control. Besides, the Residual activity at CHK2 (1.0E-05 M) is recorded as 72 % of control; on CHK2 (1.0E-06 M), 92 % of control; on CK1delta (1.0E-05 M), 106 % of control; at CK1delta (1.0E-06 M), 110 % of control; on EPHB3 (1.0E-05 M) it was 69 % of control; at EPHB3 (1.0E-06 M) it was 100 % of control. Further, the Residual activity on EPHB4 (1.0E-05 M) is given as 74 % of control; at EPHB4 (1.0E-06 M), 99 % of control; at FGFR2 (1.0E-05 M) it was 51 % of control; on FGFR2 (1.0E-06 M), 90 % of control; on MAPKAPK2 (1.0E-05 M) it was 77 % of control; at MAPKAPK2 (1.0E-06 M), 121 % of control.

In the case of `O=C(Nc1ccc(F)c(Nc2ccc3c(c2)CCCCC3=O)c1)c1cccc(F)c1` [Compound 109], the Residual activity on ACVR1B (1.0E-05 M) is given as 87 % of control; on ACVR1B (1.0E-06 M), 98 % of control; at CDK19/CycC (1.0E-05 M) it was 74 % of control; on CDK19/CycC (1.0E-06 M), 83 % of control; on CDK3/CycC (1.0E-05 M) it was 96 % of control; on CDK3/CycC (1.0E-06 M) it was 87 % of control. For the same compound, the Residual activity is given as 74 % of control at CHK2 (1.0E-05 M); 94 % of control at CHK2 (1.0E-06 M); 15 % of control on CK1delta (1.0E-05 M); 23 % of control on CK1delta (1.0E-06 M); 85 % of control on EPHB3 (1.0E-05 M); 100 % of control on EPHB3 (1.0E-06 M). The Residual activity is 82 % of control on EPHB4 (1.0E-05 M); 100 % of control at EPHB4 (1.0E-06 M); 74 % of control at FGFR2 (1.0E-05 M); 97 % of control at FGFR2 (1.0E-06 M); 78 % of control at MAPKAPK2 (1.0E-05 M); 101 % of control at MAPKAPK2 (1.0E-06 M). Besides, the inhibition at 1 µM at CK1delta (1 µM, read-out: inhibition of CK1-δ) is at least 50%. The inhibition at 10 µM at CK1delta (10 µM, read-out: inhibition of CK1-δ) is at least 50%.

Source of the values: paper PMC9030254, “Target Hopping from Protein Kinases to PXR: Identification of Small-Molecule Protein Kinase Inhibitors as Selective Modulators of Pregnane X Receptor from TüKIC Library” (Cells, 2022).
